According to PubChem BioAssay AID248 (DTP/NCI, 2004):
Where “and” joins values, the source holds several entries; their conditions need not be identical. Identical values can stand only once. Inconclusive results and toxic doses are left out. Cut-off read from the data, not from the text of the source: active = T/C of 150% or more; inactive = T/C below 125%.

Test system: L1210 leukemia ip in BDF1 mice, survival T/C
Assay: NCI In Vivo Anticancer Drug Screen. Data for tumor model L1210 Leukemia (intraperitoneal) in B6D2F1 (BDF1) mice
Conditions: endpoint: mean survival time, higher = longer survival
Outline: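 Ratio derived from survival: compound-dosed mice over vehicle-dosed mice, all bearing a transplantable tumor.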

[1] = dose: 100.0 mg/kg/injection, schedule: Q01DX001 (ip), vehicle: Klucel (hydroxypropylcellulose) (HPC)
[2] = dose: 100.0 mg/kg/injection, schedule: Q01DX009 (ip), vehicle: saline
[3] = dose: 100.0 mg/kg/injection, schedule: Q04DX003 (ip), vehicle: saline
[4] = dose: 200.0 mg/kg/injection, schedule: Q01DX001 (ip), vehicle: Klucel (hydroxypropylcellulose) (HPC)
[5] = dose: 200.0 mg/kg/injection, schedule: Q01DX009 (ip), vehicle: saline
[6] = dose: 200.0 mg/kg/injection, schedule: Q04DX003 (ip), vehicle: saline
[7] = dose: 100.0 mg/kg/injection, schedule: Q01DX001 (ip), vehicle: saline
[8] = dose: 200.0 mg/kg/injection, schedule: Q01DX001 (ip), vehicle: saline
[9] = dose: 400.0 mg/kg/injection, schedule: Q01DX001 (ip), vehicle: saline
[10] = dose: 100.0 mg/kg/injection, schedule: Q01DX009 (ip), vehicle: Klucel (hydroxypropylcellulose) (HPC)
[11] = dose: 100.0 mg/kg/injection, schedule: Q04DX003 (ip), vehicle: Klucel (hydroxypropylcellulose) (HPC)
[12] = dose: 200.0 mg/kg/injection, schedule: Q01DX009 (ip), vehicle: Klucel (hydroxypropylcellulose) (HPC)
[13] = dose: 200.0 mg/kg/injection, schedule: Q04DX003 (ip), vehicle: Klucel (hydroxypropylcellulose) (HPC)
[14] = dose: 400.0 mg/kg/injection, schedule: Q01DX009 (ip), vehicle: Klucel (hydroxypropylcellulose) (HPC)
[15] = dose: 400.0 mg/kg/injection, schedule: Q04DX003 (ip), vehicle: Klucel (hydroxypropylcellulose) (HPC)
[16] = dose: 100.0 mg/kg/injection, schedule: Q04DX003 (ip), vehicle: saline with Tween-80
[17] = dose: 200.0 mg/kg/injection, schedule: Q04DX003 (ip), vehicle: saline with Tween-80
[18] = dose: 400.0 mg/kg/injection, schedule: Q04DX003 (ip), vehicle: saline with Tween-80
[19] = dose: 25.0 mg/kg/injection, schedule: Q01DX009 (ip), vehicle: Klucel (hydroxypropylcellulose) (HPC)
[20] = dose: 50.0 mg/kg/injection, schedule: Q01DX009 (ip), vehicle: Klucel (hydroxypropylcellulose) (HPC)
[21] = dose: 100.0 mg/kg/injection, schedule: Q04DX002 (ip), vehicle: Klucel (hydroxypropylcellulose) (HPC)
[22] = dose: 200.0 mg/kg/injection, schedule: Q04DX002 (ip), vehicle: Klucel (hydroxypropylcellulose) (HPC)
[23] = dose: 400.0 mg/kg/injection, schedule: Q04DX002 (ip), vehicle: Klucel (hydroxypropylcellulose) (HPC)
[24] = dose: 400.0 mg/kg/injection, schedule: Q01DX009 (ip), vehicle: saline

Measured: T/C

CCOc1cc[n+]([O-])cc1
inactive: dose: 50.0 mg/kg/injection, schedule: Q01DX009 (ip), vehicle: saline 90 % of control | [1] 96 % of control | [2] 90 % of control | [3] 100 % of control | [4] 108 % of control | [5] 90 % of control | [6] 96 % of control

Clc1ccccc1/C=N/N1CCN(/N=C/c2ccccc2Cl)CC1
inactive: [7] 97 % of control | [8] 95 % of control | [9] 101 % of control

Cc1c(Cl)cccc1NC(=O)c1ccc(Cl)cc1
inactive: [10] 87 % of control | [11] 93 % of control | [12] 91 % of control | [13] 96 % of control | [14] 97 % of control | [15] 91 % of control

CCSC(C(OC(C)=O)C(OC(C)=O)C(OC(C)=O)C(COC(C)=O)OC(C)=O)n1cnc2c(=S)nc[nH]c21 (configuration not stated)
inactive: dose: 100.0 mg/kg/injection, schedule: Q04DX003 (ip), vehicle: saline sonified 102 % of control | dose: 200.0 mg/kg/injection, schedule: Q04DX003 (ip), vehicle: saline sonified 96 % of control | dose: 400.0 mg/kg/injection, schedule: Q04DX003 (ip), vehicle: saline sonified 91 % of control

O=C(CS(=O)(=O)C1CCCCC1)C1CCCCC1
inactive: [16] 94 % of control | [17] 94 % of control | [18] 88 % of control

CCOC(=O)N[n+]1ccc(C)cc1
inactive: dose: 75.0 mg/kg/injection, schedule: Q01DX001 (ip), vehicle: other 101 % of control | dose: 150.0 mg/kg/injection, schedule: Q01DX001 (ip), vehicle: other 101 % of control | dose: 300.0 mg/kg/injection, schedule: Q01DX001 (ip), vehicle: other 105 % of control

Nc1ccccn1
inactive: dose: 12.5 mg/kg/injection, schedule: Q04DX002 (ip), vehicle: saline 100 % of control | dose: 25.0 mg/kg/injection, schedule: Q04DX002 (ip), vehicle: saline 89 % of control

COc1cccc(CCO)c1OC
inactive: dose: 50.0 mg/kg/injection, schedule: Q01DX001 (ip), vehicle: carboxymethylcellulose (CMC) 88 % of control | dose: 100.0 mg/kg/injection, schedule: Q01DX001 (ip), vehicle: carboxymethylcellulose (CMC) 91 % of control | dose: 200.0 mg/kg/injection, schedule: Q01DX001 (ip), vehicle: carboxymethylcellulose (CMC) 88 % of control | dose: 400.0 mg/kg/injection, schedule: Q01DX001 (ip), vehicle: carboxymethylcellulose (CMC) 98 % of control

CC(O)c1cccc(NC(=O)NC2CCCCC2)c1 (configuration not stated)
inactive: [10] 95 % of control | [12] 101 % of control | [14] 95 % of control

O=C(NS(=O)(=O)c1ccc(Cl)c(Cl)c1)NS(=O)(=O)c1ccc(Cl)c(Cl)c1
inactive: dose: 100.0 mg/kg/injection, schedule: Q01DX001 (ip), vehicle: saline with Tween-80 100 % of control | dose: 200.0 mg/kg/injection, schedule: Q01DX001 (ip), vehicle: saline with Tween-80 99 % of control

CCCNC(=O)Sc1ccc(C(C)(C)C)cc1
inactive: dose: 25.0 mg/kg/injection, schedule: Q01DX001 (ip), vehicle: Klucel (hydroxypropylcellulose) (HPC) 91 % of control | [19] 95 % of control and 104 % of control | dose: 50.0 mg/kg/injection, schedule: Q01DX001 (ip), vehicle: Klucel (hydroxypropylcellulose) (HPC) 91 % of control | [20] 98 % of control and 112 % of control | [1] 93 % of control | [10] 93 % of control and 102 % of control and 104 % of control | [21] 95 % of control and 89 % of control | [22] 96 % of control and 97 % of control | [23] 92 % of control and 93 % of control

NCCP(=O)(O)c1ccccc1
inactive: [7] 94 % of control | [8] 93 % of control | [9] 93 % of control

CN(CCNC(=O)c1ccc(Cl)cc1)c1ccccc1
inactive: [21] 96 % of control | [22] 96 % of control | [23] 86 % of control

CCOC(=O)CCN1CCCCCC1
inactive: [2] 104 % of control | [3] 92 % of control | [5] 104 % of control | [6] 98 % of control | [24] 101 % of control | dose: 400.0 mg/kg/injection, schedule: Q04DX003 (ip), vehicle: saline 102 % of control

CN(N=O)C(=O)NCc1c[nH]c(=O)[nH]c1=O
inactive: dose: 6.0 mg/kg/injection, schedule: Q01DX Z (ip), vehicle: carboxymethylcellulose (CMC) 106 % of control | dose: 12.0 mg/kg/injection, schedule: Q01DX Z (ip), vehicle: carboxymethylcellulose (CMC) 101 % of control | dose: 25.0 mg/kg/injection, schedule: Q01DX Z (ip), vehicle: carboxymethylcellulose (CMC) 100 % of control | dose: 50.0 mg/kg/injection, schedule: Q01DX Z (ip), vehicle: carboxymethylcellulose (CMC) 121 % of control

CCOC(=O)CP(=O)(OC)c1ccccc1 (configuration not stated)
inactive: [2] 97 % of control | [5] 120 % of control | [24] 101 % of control

O=C1c2c(O)cccc2C(Br)c2cccc(O)c21
inactive: dose: 100.0 mg/kg/injection, schedule: Q01DX001 (ip), vehicle: water 108 % of control | dose: 100.0 mg/kg/injection, schedule: Q01DX009 (ip), vehicle: water 103 % of control | dose: 200.0 mg/kg/injection, schedule: Q01DX001 (ip), vehicle: water 108 % of control | dose: 200.0 mg/kg/injection, schedule: Q01DX009 (ip), vehicle: water 100 % of control | dose: 300.0 mg/kg/injection, schedule: Q01DX001 (ip), vehicle: water 104 % of control | dose: 400.0 mg/kg/injection, schedule: Q01DX009 (ip), vehicle: water 90 % of control

Cc1ncn[nH]1
inactive: dose: 100.0 mg/kg/injection, schedule: Q04DX002 (ip), vehicle: saline 96 % of control | dose: 200.0 mg/kg/injection, schedule: Q04DX002 (ip), vehicle: saline 100 % of control | dose: 400.0 mg/kg/injection, schedule: Q04DX002 (ip), vehicle: saline 89 % of control

CCC(C)(CC)OC(=O)c1ccc([N+](=O)[O-])cc1
inactive: [21] 113 % of control | [22] 106 % of control | [23] 97 % of control

c1ccc(C(=C2CC34CCCC23CC4)c2ccccc2)cc1 (configuration not stated)
inactive: dose: 37.5 mg/kg/injection, schedule: Q04DX002 (ip), vehicle: saline with Tween-80 95 % of control | dose: 75.0 mg/kg/injection, schedule: Q04DX002 (ip), vehicle: saline with Tween-80 98 % of control | dose: 150.0 mg/kg/injection, schedule: Q04DX002 (ip), vehicle: saline with Tween-80 91 % of control | dose: 300.0 mg/kg/injection, schedule: Q04DX002 (ip), vehicle: saline with Tween-80 91 % of control

c1ccc(N/N=C(\C(=N\Nc2ccccc2)c2ccccc2)c2ccccc2)cc1
inactive: [4] 87 % of control | dose: 400.0 mg/kg/injection, schedule: Q01DX001 (ip), vehicle: Klucel (hydroxypropylcellulose) (HPC) 86 % of control

CC1=NCCCN=C(C)C(C)=NCCCN=C1C.[Br][Co][Br]
inactive: [19] 100 % of control | [20] 96 % of control | [10] 95 % of control | [11] 106 % of control | [12] 110 % of control | [13] 90 % of control

Cc1ccc(C[n+]2cccc(NC(=O)COc3ccc(Cl)c(Cl)c3)c2)cc1
inactive: [16] 95 % of control | [17] 93 % of control | [18] 98 % of control

CCCC(=O)Nc1ccc([N+](=O)[O-])cc1OC
inactive: dose: 100.0 mg/kg/injection, schedule: Q01DX009 (ip), vehicle: saline with Tween-80 105 % of control | dose: 200.0 mg/kg/injection, schedule: Q01DX009 (ip), vehicle: saline with Tween-80 94 % of control | dose: 400.0 mg/kg/injection, schedule: Q01DX009 (ip), vehicle: saline with Tween-80 94 % of control

CC(=O)C(CCC#N)(CCC#N)C(=O)Nc1ccccc1
inactive: [11] 97 % of control | [13] 98 % of control | [15] 95 % of control
